In patent publication US20220023257A1, “TREATMENT OF DEMENTIA-ASSOCIATED TAUOPATHIES” (Medizinische Hochschule Hannover (MHH), priority 2018, published 2022):

Assays:
[1] = test system: WT mice injected with AAV-eGFP-Tau[R406W]; experiment: Tau hyperphosphorylation and recency test in WT mice after AAV-eGFP-Tau[R406W] injection into the prefrontal cortex; format: in vivo; settings: intraperitoneal, once daily for 16 days
Procedure: A. Scheme showing experimental design: AAV-eGFP-Tau[R406W] was injected stereotactically into the prefrontal cortex (PFC) of WT mice. After 3 weeks of recovery time, animals were intraperitoneally injected with either Vehicle or Amisulpride once daily for 16 days. B. Staining of prefrontal cortical slices of mice after AAV injection and treatment with phospho-specific Tau antibody T205. Representative overview image and magnification are shown. C. Quantification of the mean intensities of eGFP-Tau and pTau over the whole slice and calculation of the pTau/Tau ratio. Data are shown as mean+SEM (N=5). * indicates statistical significance of p<0.05 (one-tailed unpaired t-test). D. Results of test for temporal order recognition memory (recency test). Quantification of exploration time spent with less recent (L) and recent (R) object and discrimination index. Data are presented as mean+SEM (9≥N≥7). * indicates statistical significance of p<0.05, ** p<0.01; n.s., not statistically different (paired t-test and Wilcoxon signed rank test were applied to analyze exploration time, one-way ANOVA was applied to analyze the discrimination ratio).

[2] = target: T1, 5-HT7R (Homo sapiens, UniProt P34969); experiment: 5-HT7R-induced Tau aggregation in HEK293 Tau-BiFC cells; format: cell-based; settings: HEK293 Tau-BiFC cells transfected with CFP-5-HT7R; maximum intensity projections
T1 construct: HA (N); expressed in transfected cells; host or cells: N1E-115 (neuroblastoma cells)
Description: Signals are normalized to DMSO-treated pcDNA-transfected cells. Data are represented as means+SDs (N=3). *** indicates statistical significance of p<0.001, n.s. not statistically different (one-way ANOVA, followed by Turkey's post hoc test). […] Representative maximum intensity projections of HEK293 Tau-BiFC cells transfected with control vector (mCerulean, blue) or 5-HT7R (CFP-5-HT7R, blue) upon the indicated treatment. […] Membranes were probed with total Tau (Abcam) and GAPDH antibody (Millipore). Signals are normalized to DMSO-treated pcDNA-transfected cells. Data are represented as means+SDs (N=3). ** indicates statistical significance of p<0.01, *** p<0.001, n.s. not statistically different (one-way ANOVA, followed by Turkey's post hoc test). […] HEK293 Tau-BiFC cells were transfected with (HA)5-HT7R and treated with the indicated concentration of Amisulpride.

[3] = test system: eGFP-Tau[R406W]-infected primary cortical neurons; experiment: Tau tangle formation and apoptosis in eGFP-Tau[R406W]-infected primary cortical neurons; format: cell-based, mice; settings: 50 μM Amisulpride for three days, DIV 10-13
Description: White boxes and its corresponding magnifications show representative neurons with and without tau tangles. Arrow heads indicate cells that were counted as tangle-positive. B. Quantification of tau tangles. The number of tangle-positive neurons was counted in a confined area in 6 independent experiments and is represented as a fraction of total number of infected neurons. * indicates statistical significance of p<0.05; ** p<0.01 (N=6; total analyzed cells […], one-way ANOVA, followed by Dunnett's post hoc test). C. […] D. Representative images of DIV14 primary cortical WT neurons infected at DIV10 either with AAV constructs encoding eGFP (white) or eGFP-Tau[R406W] (green). […] Fluorescence from cleaved substrate of active caspase3/7 indicating apoptosis is shown. E. Quantification of apoptosis. Apoptotic cells showing caspase3/7 activity were counted in a confined area in 6 independent experiments and are represented as a fraction of total number of infected neurons.
A. Scheme showing experimental design. […] Neurons were analyzed at DIV 13. […] Arrowheads indicate cells that were counted as tangle-positive. […] Quantification of Tau tangles. The number of tangle-positive neurons was counted in a confined area in at least four independent experiments and is represented as a fraction of the total number of infected neurons. […] GAPDH expression was detected in a soluble fraction. […]

T1 sequence (P34969 whole entry): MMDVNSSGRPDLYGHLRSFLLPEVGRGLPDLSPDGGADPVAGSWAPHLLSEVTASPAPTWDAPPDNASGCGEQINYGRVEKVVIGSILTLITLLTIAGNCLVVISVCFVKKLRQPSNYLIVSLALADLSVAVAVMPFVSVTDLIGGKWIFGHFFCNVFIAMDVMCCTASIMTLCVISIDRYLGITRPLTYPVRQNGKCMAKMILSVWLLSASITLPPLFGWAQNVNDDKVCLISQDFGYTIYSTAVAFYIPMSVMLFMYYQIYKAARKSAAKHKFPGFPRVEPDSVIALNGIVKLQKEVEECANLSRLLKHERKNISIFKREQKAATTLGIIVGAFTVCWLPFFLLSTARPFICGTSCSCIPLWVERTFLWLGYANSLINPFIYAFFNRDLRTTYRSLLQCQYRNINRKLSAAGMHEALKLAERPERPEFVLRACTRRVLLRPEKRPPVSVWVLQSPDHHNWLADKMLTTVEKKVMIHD

CCN1CCCC1CNC(=O)c1cc(S(=O)(=O)CC)c(N)cc1OC (centres unmarked) [Amisulpride]
Tau[R406W]-induced memory impairments (recency test) [1]: ameliorates | Tau[R406W]-induced Tau hyperphosphorylation (pTau/Tau ratio, T205 staining) ([1]; prefrontal cortical slices): ameliorates | Tangles of Venus-Tau (VN-Tau) in 5-HT7R-transfected cells [2]: disappeared | 5-HT7R-induced Tau tangle formation [3]: reduced | apoptosis (caspase3/7 activity) [3]: reduced
